Test results as given in ChEMBL document CHEMBL1201862, “PubChem BioAssay data set” (2004).
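These data come from cells grown in 96-well plates and exposed to compound for 48 hours at five concentrations. GI50 = concentration required for 50% inhibition of growth.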 Calls of active or inactive are those of the source. Cut-off read from the data, not from the text of the source: active = GI50 up to about 1.1 µM and inactive = higher.

Experiments:
Experiment in all cases: DTP human tumour cell line panel, 48 h
A549 = system: A549
BT-549 = system: BT-549
CCRF-CEM = system: CCRF-CEM
HCT-116 = system: HCT-116
HCT-15 = system: HCT-15
HOP-62 = system: HOP-62
IGROV-1 = system: IGROV-1
K562 = system: K562
KM12 = system: KM12
NCI-H460 = system: NCI-H460
OVCAR-4 = system: OVCAR-4
OVCAR-8 = system: OVCAR-8
SF-268 = system: SF-268
SK-MEL-2 = system: SK-MEL-2
SK-MEL-5 = system: SK-MEL-5
SNB-19 = system: SNB-19
SW-620 = system: SW-620
T47D = system: T47D
TK-10 = system: TK-10
UACC-62 = system: UACC-62

Compound | GI50 (A549) | GI50 (BT-549) | GI50 (CCRF-CEM) | GI50 (HCT-116) | GI50 (HCT-15) | GI50 (HOP-62) | GI50 (IGROV-1) | GI50 (K562) | GI50 (KM12) | GI50 (NCI-H460) | GI50 (OVCAR-4) | GI50 (OVCAR-8) | GI50 (SF-268) | GI50 (SK-MEL-2) | GI50 (SK-MEL-5) | GI50 (SNB-19) | GI50 (SW-620) | GI50 (T47D) | GI50 (TK-10) | GI50 (UACC-62)
O=C1/C(=C/c2ccccc2)CCC/C1=C\c1ccccc1 [2,6-DIBENZYLIDENECYCLOHEXANONE] | 19.6 µM (inactive) | 5.81 µM (inactive) | 4.12 µM (inactive) | 1.71 µM (inactive) | 8.07 µM | 21.7 µM (inactive) | 13 µM (inactive) | 3.58 µM (inactive) | 2.52 µM (inactive) | 14.9 µM (inactive) | 14.9 µM (inactive) | 8.26 µM (inactive) | 11 µM (inactive) | 16.7 µM (inactive) | 13.2 µM (inactive) | 14.6 µM (inactive) | 2.6 µM (inactive) | 6.4 µM (inactive) | 17.8 µM (inactive) | 13.2 µM (inactive)
C[C@]12CC[C@H](O[C@@H]3O[C@H](CO[C@@H]4O[C@H](CO)[C@@H](O)[C@H](O)[C@H]4O)[C@@H](O)[C@H](O)[C@H]3O)C[C@@H]1CC[C@@H]1[C@@H]2CC[C@]2(C)[C@@H](C3=CC(=O)OC3)CC[C@]12O [UZARIN] | 5.33 µM (inactive) | 6.71 µM (inactive) | 4.07 µM (inactive) | 9.06 µM (inactive) | 18.2 µM | 13.7 µM (inactive) | 10.7 µM (inactive) | 24.2 µM (inactive) | 47.8 µM (inactive) | 7.29 µM (inactive) | 17.3 µM (inactive) | 31.8 µM (inactive) | 11 µM (inactive) | 36.4 µM (inactive) | 4.62 µM (inactive) | 38.9 µM (inactive) | 31.6 µM (inactive) | 31.1 µM (inactive) | 18.8 µM (inactive) | 33.7 µM (inactive)
CCCCCCNC(=O)C1=C(C)NC(C)=C(C(=O)NCCCCCC)C1 | > 100 µM (inactive) | > 100 µM (inactive) | 70.3 µM (inactive) | > 100 µM (inactive) | > 100 µM | > 100 µM (inactive) | > 100 µM (inactive) | 65.8 µM (inactive) | > 100 µM (inactive) | > 100 µM (inactive) | > 100 µM (inactive) | > 100 µM (inactive) | > 100 µM (inactive) | > 100 µM (inactive) | > 100 µM (inactive) | > 100 µM (inactive) | > 100 µM (inactive) | > 100 µM (inactive) | > 100 µM (inactive) | > 100 µM (inactive)
Fc1cccc(CSc2ncnc3c2ncn3C2CCCS2)c1 (stereo not drawn) | 20.1 µM (inactive) | 21.7 µM (inactive) | 8.49 µM (inactive) | 8.34 µM (inactive) | 8.51 µM | 17.6 µM (inactive) | 22.4 µM (inactive) | 8.77 µM (inactive) | 15.4 µM (inactive) | 4.79 µM (inactive) | 23.4 µM (inactive) | 20.8 µM (inactive) | 14.8 µM (inactive) | 19.6 µM (inactive) | 10.5 µM (inactive) | 36.2 µM (inactive) | 29.9 µM (inactive) | 29.3 µM (inactive) | 30.6 µM (inactive) | 13.1 µM (inactive)
CC(=O)c1nccc2c1c(C)nc1ccccc12 | 65 µM (inactive) | 97.3 µM (inactive) | 16.4 µM (inactive) | 64.3 µM (inactive) | 58.9 µM | 69.8 µM (inactive) | 70 µM (inactive) | 71.3 µM (inactive) | 38.7 µM (inactive) | 32.8 µM (inactive) | > 100 µM (inactive) | 72.6 µM (inactive) | 64.3 µM (inactive) | > 100 µM (inactive) | 60.8 µM (inactive) | > 100 µM (inactive) | > 100 µM (inactive) | 43.4 µM (inactive) | > 100 µM (inactive) | 53.7 µM (inactive)
CCOC(=O)c1nc2ccc(C(F)(F)F)cc2nc1NCc1ccc(Cl)c(Cl)c1 | 35.2 µM (inactive) | 37 µM (inactive) | > 100 µM (inactive) | 27 µM (inactive) | 36.1 µM | 21.1 µM (inactive) | 20.7 µM (inactive) | 80 µM (inactive) | 28.7 µM (inactive) | 45.6 µM (inactive) | 21 µM (inactive) | 37.1 µM (inactive) | 39.9 µM (inactive) | 63.8 µM (inactive) | 31.9 µM (inactive) | 28.3 µM (inactive) | 40 µM (inactive) | 44.5 µM (inactive) | 34.2 µM (inactive) | 30 µM (inactive)
COc1cccc(-c2[nH]c3cc4c(cc3c(=O)c2C(=O)O)OCO4)c1 | 44.7 µM (inactive) | 51.3 µM (inactive) | 27.4 µM (inactive) | 32.8 µM (inactive) | 28.4 µM | 62.8 µM (inactive) | 37.8 µM (inactive) | 34.5 µM (inactive) | 36.7 µM (inactive) | 43.7 µM (inactive) | 28.6 µM (inactive) | 23.2 µM (inactive) | – | 78.7 µM (inactive) | 31 µM (inactive) | 43.4 µM (inactive) | 29 µM (inactive) | > 100 µM (inactive) | – | 33.6 µM (inactive)
